Test results from ChEMBL document CHEMBL5032523, “Discovery of thiazolidin-4-one analogue as selective GSK-3β inhibitor through structure based virtual screening” (Bioorg Med Chem Lett, 2021).
Calls of active or inactive are those of the source. The rule behind the calls is not given here.

Columns and labels:
[1] = molecular target: T1, Serine/threonine-protein kinase haspin (Homo sapiens) (UniProt Q8TF76); assay: Inhibition of HASPIN (unknown origin) at 10 uM relative to control
T1 sequence (whole entry): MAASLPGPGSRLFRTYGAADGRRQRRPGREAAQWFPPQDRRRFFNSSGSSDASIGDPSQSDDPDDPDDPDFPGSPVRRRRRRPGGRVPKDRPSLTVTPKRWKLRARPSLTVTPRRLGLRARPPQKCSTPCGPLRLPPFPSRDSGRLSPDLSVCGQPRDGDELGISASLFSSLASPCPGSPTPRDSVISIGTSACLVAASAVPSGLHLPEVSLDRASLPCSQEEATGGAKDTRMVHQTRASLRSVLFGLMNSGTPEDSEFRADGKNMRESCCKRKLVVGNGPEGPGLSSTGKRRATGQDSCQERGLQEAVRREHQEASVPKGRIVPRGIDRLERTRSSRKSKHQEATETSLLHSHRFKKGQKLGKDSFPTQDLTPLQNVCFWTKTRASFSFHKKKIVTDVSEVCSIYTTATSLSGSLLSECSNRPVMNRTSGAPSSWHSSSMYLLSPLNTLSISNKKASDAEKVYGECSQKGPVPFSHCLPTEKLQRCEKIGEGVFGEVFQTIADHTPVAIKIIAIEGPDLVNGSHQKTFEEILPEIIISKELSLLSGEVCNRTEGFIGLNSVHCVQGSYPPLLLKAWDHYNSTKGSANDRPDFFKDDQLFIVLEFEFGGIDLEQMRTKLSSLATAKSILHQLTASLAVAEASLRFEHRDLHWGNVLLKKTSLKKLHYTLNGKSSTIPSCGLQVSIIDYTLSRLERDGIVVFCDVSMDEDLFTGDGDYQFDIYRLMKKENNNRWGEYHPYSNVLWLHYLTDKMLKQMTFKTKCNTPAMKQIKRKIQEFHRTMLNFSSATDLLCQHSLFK

[2] = molecular target: T2, Glycogen synthase kinase-3 beta (Homo sapiens, UniProt P49841); assay: Inhibition of GSK3beta (unknown origin) at 10 uM relative to control
Target sequence in this assay (P49841 whole entry, looked up): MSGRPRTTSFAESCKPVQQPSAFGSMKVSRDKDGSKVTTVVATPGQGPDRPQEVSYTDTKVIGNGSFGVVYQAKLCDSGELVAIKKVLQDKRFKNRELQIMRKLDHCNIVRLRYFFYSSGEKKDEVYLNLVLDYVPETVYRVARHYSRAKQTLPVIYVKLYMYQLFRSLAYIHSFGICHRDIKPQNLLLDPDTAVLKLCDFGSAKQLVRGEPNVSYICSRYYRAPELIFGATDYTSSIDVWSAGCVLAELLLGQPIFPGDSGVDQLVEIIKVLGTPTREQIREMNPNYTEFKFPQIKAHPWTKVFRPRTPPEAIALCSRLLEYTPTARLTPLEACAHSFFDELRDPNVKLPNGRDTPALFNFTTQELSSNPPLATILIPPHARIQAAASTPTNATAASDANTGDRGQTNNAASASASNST

[3] = molecular target: T3, Cyclin-dependent kinase 9 (Homo sapiens, UniProt P50750); assay: Inhibition of CDK9 (unknown origin) at 10 uM relative to control
[4] = molecular target: T4, Cyclin-dependent kinase 5 (Homo sapiens, UniProt Q00535); assay: Inhibition of CDK5 (unknown origin) at 10 uM relative to control
Target sequence in this assay (Q00535 whole entry, looked up): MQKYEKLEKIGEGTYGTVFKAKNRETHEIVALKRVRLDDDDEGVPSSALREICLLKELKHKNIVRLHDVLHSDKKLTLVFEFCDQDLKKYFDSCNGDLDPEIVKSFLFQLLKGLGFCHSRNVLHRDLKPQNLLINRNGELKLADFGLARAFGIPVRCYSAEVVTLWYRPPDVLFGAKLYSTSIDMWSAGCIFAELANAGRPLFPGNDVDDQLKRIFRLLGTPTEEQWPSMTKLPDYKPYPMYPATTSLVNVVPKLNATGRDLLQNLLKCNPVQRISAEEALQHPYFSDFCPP

[5] = molecular target: T5, Casein kinase I delta/epsilon (Homo sapiens, UniProt P48730+P49674); assay: Inhibition of CK-1 delta/epsilon (unknown origin) at 10 uM relative to control; type: protein-complex assay
Target sequence in this assay (P48730 whole entry, looked up): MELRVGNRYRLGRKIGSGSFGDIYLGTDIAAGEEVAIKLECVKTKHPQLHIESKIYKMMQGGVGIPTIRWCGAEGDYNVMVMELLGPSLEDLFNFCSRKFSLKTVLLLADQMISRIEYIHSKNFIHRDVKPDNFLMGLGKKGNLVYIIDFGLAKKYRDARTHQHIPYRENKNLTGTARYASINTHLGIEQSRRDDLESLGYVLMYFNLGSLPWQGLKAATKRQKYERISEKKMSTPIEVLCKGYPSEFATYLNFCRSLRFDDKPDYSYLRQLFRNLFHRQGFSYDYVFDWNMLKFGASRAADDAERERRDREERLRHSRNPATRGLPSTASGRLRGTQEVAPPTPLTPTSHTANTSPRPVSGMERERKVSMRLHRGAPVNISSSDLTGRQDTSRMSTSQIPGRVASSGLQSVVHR
Target sequence in this assay (P49674 whole entry, looked up): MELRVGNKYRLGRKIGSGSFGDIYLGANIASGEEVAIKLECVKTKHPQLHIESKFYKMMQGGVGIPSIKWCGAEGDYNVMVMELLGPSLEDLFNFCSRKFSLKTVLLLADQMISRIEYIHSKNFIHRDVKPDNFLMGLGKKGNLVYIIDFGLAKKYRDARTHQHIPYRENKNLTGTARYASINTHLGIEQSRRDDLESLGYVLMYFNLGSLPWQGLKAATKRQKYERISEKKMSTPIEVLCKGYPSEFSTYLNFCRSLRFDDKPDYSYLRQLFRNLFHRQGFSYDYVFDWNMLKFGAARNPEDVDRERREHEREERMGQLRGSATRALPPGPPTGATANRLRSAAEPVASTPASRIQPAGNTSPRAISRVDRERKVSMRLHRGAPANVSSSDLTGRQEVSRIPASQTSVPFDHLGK

[6] = molecular target: T6, Serine/threonine-protein kinase pim-1 (Homo sapiens, UniProt P11309); assay: Inhibition of PIM1 (unknown origin) at 10 uM relative to control
Target sequence in this assay (P11309 whole entry, looked up): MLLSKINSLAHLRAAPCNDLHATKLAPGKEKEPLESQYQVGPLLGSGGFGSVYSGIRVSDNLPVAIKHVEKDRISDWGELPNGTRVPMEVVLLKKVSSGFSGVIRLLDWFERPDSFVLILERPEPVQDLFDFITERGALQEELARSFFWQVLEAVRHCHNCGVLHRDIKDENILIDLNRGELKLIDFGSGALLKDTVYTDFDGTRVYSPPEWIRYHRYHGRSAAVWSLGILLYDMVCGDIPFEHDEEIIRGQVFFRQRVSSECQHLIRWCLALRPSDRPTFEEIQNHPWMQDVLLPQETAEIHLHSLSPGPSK

[7] = molecular target: T7, Dual specificity protein kinase CLK1 (Homo sapiens, UniProt P49759); assay: Inhibition of CLK1 (unknown origin) at 10 uM relative to control
Target sequence in this assay (P49759 whole entry, looked up): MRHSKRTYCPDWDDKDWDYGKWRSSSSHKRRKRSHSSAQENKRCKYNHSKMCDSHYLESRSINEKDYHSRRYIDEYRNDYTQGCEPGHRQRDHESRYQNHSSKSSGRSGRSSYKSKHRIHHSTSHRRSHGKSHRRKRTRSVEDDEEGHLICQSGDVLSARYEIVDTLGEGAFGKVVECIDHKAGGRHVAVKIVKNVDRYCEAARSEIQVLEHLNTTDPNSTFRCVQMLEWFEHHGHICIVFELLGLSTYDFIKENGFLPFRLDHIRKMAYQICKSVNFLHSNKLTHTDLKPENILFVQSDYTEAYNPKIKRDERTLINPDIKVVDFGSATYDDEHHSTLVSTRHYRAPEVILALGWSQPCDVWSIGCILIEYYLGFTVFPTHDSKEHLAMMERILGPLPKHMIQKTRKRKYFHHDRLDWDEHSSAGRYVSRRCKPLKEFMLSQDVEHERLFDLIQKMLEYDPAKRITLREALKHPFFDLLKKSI

[8] = molecular target: T8, Dual specificity tyrosine-phosphorylation-regulated kinase 1A (Homo sapiens, UniProt Q13627); assay: Inhibition of DYRK1A (unknown origin) at 10 uM relative to control
[9] = molecular target: T5, Casein kinase I delta/epsilon; assay: Inhibition of CK-1 delta/epsilon (unknown origin); type: protein-complex assay
Target sequence in this assay (P48730 whole entry): as the sequence (P48730 whole entry, looked up) above
Target sequence in this assay (P49674 whole entry): as the sequence (P49674 whole entry, looked up) above

[10] = molecular target: T9, Serine/threonine-protein kinase haspin (Homo sapiens, UniProt Q8TF76); assay: Inhibition of HASPIN (unknown origin)
T9 sequence (Q8TF76 whole entry): T1 sequence (whole entry)

[11] = molecular target: T4, Cyclin-dependent kinase 5; assay: Inhibition of CDK5 (unknown origin)
Target sequence in this assay (Q00535 whole entry): as the sequence (Q00535 whole entry, looked up) above

[12] = molecular target: T2, Glycogen synthase kinase-3 beta; assay: Non-competitive inhibition of GSK3beta (unknown origin) at 50 uM by ATP competitive assay
Target sequence in this assay (P49841 whole entry, looked up): as the sequence (P49841 whole entry, looked up) above

[13] = molecular target: T7, Dual specificity protein kinase CLK1; assay: Inhibition of CLK1 (unknown origin)
Target sequence in this assay (P49759 whole entry): as the sequence (P49759 whole entry, looked up) above

[14] = molecular target: T6, Serine/threonine-protein kinase pim-1; assay: Inhibition of PIM1 (unknown origin)
Target sequence in this assay (P11309 whole entry): as the sequence (P11309 whole entry, looked up) above

[15] = molecular target: T8, Dual specificity tyrosine-phosphorylation-regulated kinase 1A; assay: Inhibition of DYRK1A (unknown origin)
[16] = molecular target: T3, Cyclin-dependent kinase 9; assay: Inhibition of CDK9 (unknown origin)
[17] = molecular target: T2, Glycogen synthase kinase-3 beta; assay: Inhibition of GSK3beta (unknown origin)
Target sequence in this assay (P49841 whole entry): as the sequence (P49841 whole entry, looked up) above

T3 sequence (P50750 whole entry): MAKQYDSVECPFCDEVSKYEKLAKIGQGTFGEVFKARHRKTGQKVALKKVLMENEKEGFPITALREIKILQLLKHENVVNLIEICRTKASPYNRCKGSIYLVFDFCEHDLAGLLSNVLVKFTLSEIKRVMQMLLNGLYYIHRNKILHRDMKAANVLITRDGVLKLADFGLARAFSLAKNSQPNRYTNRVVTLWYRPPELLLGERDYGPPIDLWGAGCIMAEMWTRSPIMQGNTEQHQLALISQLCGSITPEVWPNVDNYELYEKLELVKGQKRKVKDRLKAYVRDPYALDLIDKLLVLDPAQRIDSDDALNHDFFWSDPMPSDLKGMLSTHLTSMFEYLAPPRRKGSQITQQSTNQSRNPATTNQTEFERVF

Row | inhibition [1] | inhibition [2] [%] | inhibition [3] [%] | inhibition [4] | inhibition [5] [%] | inhibition [6] [%] | inhibition [7] | inhibition [8] | IC50 [9] [µM] | IC50 [10] [µM] | IC50 [11] [µM] | inhibition [12] | IC50 [13] [µM] | IC50 [14] [µM] | IC50 [15] [µM] | IC50 [16] [µM] | IC50 [17] [µM] | SMILES
1 | 33% | 10 | 29 | inactive | 37 | 22 | 9% | inactive |  |  |  |  |  |  |  |  |  | Clc1cccc(OCCc2cc([C@@H]3CCN(Cc4cccc5ncccc45)C3)n[nH]2)c1
2 | 29% | 25 | 23 | 7% | 12 | 16 | inactive | 6% |  |  |  |  |  |  |  |  |  | Cc1cc(C)c2cc(CN(CCc3ccccc3)Cc3nnnn3Cc3ccco3)c(=O)[nH]c2c1
3 | inactive | 5 | 18 | inactive | 28 | 19 | 11% | inactive |  |  |  |  |  |  |  |  |  | Clc1ccccc1OCCc1cc([C@@H]2CCN(Cc3cccc4ncccc34)C2)n[nH]1
4 | 22% | 80 | 29 | 11% | 14 | 29 | 22% | 16% | > 10 | > 10 | > 10 | Active | > 10 | > 10 | > 10 | > 10 | 1.08 | COc1cc(/C=C2\S/C(=N/c3ccc(C)c(C)c3)NC2=O)ccc1OCc1ccc2ccccc2c1
